# Assay results reported in US20100261711A1, “SELECTIVE ANTICONVULSANT AGENTS AND THEIR USES” (WiSys Technology Foundation, priority 2009, published 2010).
# Where two headings read alike, the source gives them in different places.
# Tests used:
# [1] = biological target: T1, GABAA/α4 (α4β3γ2 GABAA receptors) (Homo sapiens, UniProt P18507+P48169); assay: Competitive binding assay, [3H]flunitrazepam
# T1 construct: expressed in transfected cells
# Experimental: (§1) The GABAA subunit selectivity of several compounds prepared as described above were determined using competitive binding assays. […] Membranes were harvested with a Brandel cell harvester followed by three ice-cold washes onto polyethyleneimine-pretreated (0.3%) Whatman GF/C filters. Filters were dried overnight and then soaked in Ecoscint, a liquid scintillation cocktail (National Diagnostics; Atlanta, Ga.). Bound radioactivity was quantified by liquid scintillation counting. Membrane protein concentrations were determined using an assay kit from Bio-Rad (Hercules, Calif.) with bovine serum albumin as the standard.
# [2] = biological target: T2, GABAA/α6 (α6β3γ2 GABAA receptors) (Homo sapiens, UniProt P18507+Q16445); assay: Competitive binding assay, [3H]flunitrazepam
# T2 construct: expressed in transfected cells
# Experimental: as §1
# MES-induced seizures = assay: Maximal electroshock test (MES), mice; assay type: in vivo; details: Mice IP
# Experimental: (§2) The benzodiazepine derivative compounds selective for GABAa receptor subunits were tested for the ability to suppress seizures in several standard rat and mouse models of epilepsy. […] The standard models incorporated into anticonvulsant screening include the maximal electroshock test (MES), the subcutaneous Metrazol test (scMet), and evaluations of toxicity (TOX). The data for each condition is presented as a ratio of either the number of animals protected or toxic (loss of locomotor activity) over the number of animals tested at a given time point and dose.
# The MES is a model for generalized tonic-clonic seizures and provides an indication of a compound's ability to prevent seizure spread when all neuronal circuits in the brain are maximally active. These seizures are highly reproducible and are electrophysiologically consistent with human seizures. For all tests based on MES convulsions, 60 Hz of alternating current (50 mA in mice, 150 in rats) is delivered for by corneal electrodes which have been primed with an electrolyte solution containing an anesthetic agent (0.5% tetracaine HCL). For Test 1, mice are tested at various intervals following doses of 30, 100 and 300 mg/kg of test compound given by ip injection of a volume of 0.01 mL/g. In Test 2, rats are tested after a dose of 30 mg/kg (po) in a volume of 0.04 mL/g. Test 8 uses varying doses administered via i.p. injection, again in a volume of 0.04 ml/g. […] In Antiepileptic Drugs, Levy, R. H. M., Meldrum, B. S., Eds.; Raven Press: New York, pp 99-110, 1995b.).
# [3] = system: Metrazol-induced clonic seizures; assay: Subcutaneous Metrazol test (scMet), rats; assay type: in vivo; details: Rat PO, 50 mg/kg
# Experimental: as §2
# (§3) Subcutaneous injection of the convulsant Metrazol produces clonic seizures in laboratory animals. […] Animals are pretreated with various doses of the test compound (in a similar manner to the MES test, although a dose of 50 mg/kg (po) is the standard for Test 2 scMet). At the previously determined TPE of the test compound, the dose of Metrazol which will induce convulsions in 97% of animals (CD97: 85 mg/kg mice) is injected into a loose fold of skin in the midline of the neck. […] An episode of clonic spasms, approximately 3-5 seconds, of the fore and/or hindlimbs, jaws, or vibrissae is taken as the endpoint.
# [4] = system: Metrazol-induced clonic seizures; assay: Subcutaneous Metrazol test (scMet), mice; assay type: in vivo; details: Mice IP
# Experimental: as §2, §3
# 6 Hz psychomotor seizure = assay: Minimal clonic seizure (6 Hz) test; assay type: in vivo; details: Mice IP; for ED50: Mus musculus, ip, 1 h, 1 Hr, read-out: ED50 (6 Hz)
# Excerpt: Like the maximal electroshock (MES) test, the minimal clonic seizure (6 Hz) test is used to assess a compound's efficacy against electrically-induced seizures but uses a lower frequency (6 Hz) and longer duration of stimulation (3 s). Test compounds are pre-administered to mice via ip injection. […] Untreated mice will display seizures characterized by a minimal clonic phase followed by stereotyped, automatistic behaviors described originally as being similar to the aura of human subjects with partial seizures. Animals not displaying this behavior are considered protected (Table 10).
# [5] = system: minimal motor deficit (ataxia, abnormal gait); assay: Toxicity (TOX), minimal motor deficit, rats; assay type: in vivo; details: Rat PO, 50 mg/kg
# Experimental: as §2
# (§4) To assess a compound's undesirable side effects (toxicity), animals are monitored for overt signs of impaired neurological or muscular function. […] When a mouse is placed on a rod that rotates at a speed of 6 rpm, the animal can maintain its equilibrium for long periods of time. The animal is considered toxic if it falls off this rotating rod three times during a 1-min period. In rats, minimal motor deficit is indicated by ataxia, which is manifested by an abnormal, uncoordinated gait. Rats used for evaluating toxicity are examined before the test drug is administered, since individual animals may have peculiarities in gait, equilibrium, placing response, etc., which might be attributed erroneously to the test substance.
# [6] = system: minimal muscular or neurological impairment; assay: Toxicity (TOX), rotorod procedure, mice; assay type: in vivo; details: Mice IP
# Experimental: as §2, §4
# [7] = biological target: T3, GABAA/α1 (α1β3γ2 GABAA receptors) (Homo sapiens, UniProt P14867+P18507); assay: Competitive binding assay, [3H]flunitrazepam
# T3 construct: expressed in transfected cells
# Experimental: as §1
# [8] = biological target: T4, GABAA/α5 (α5β3γ2 GABAA receptors) (Homo sapiens, UniProt P18507+P31644); assay: Competitive binding assay, [3H]flunitrazepam
# T4 construct: expressed in transfected cells
# Experimental: as §1
# [9] = biological target: T5, GABAA/α2 (α2β3γ2 GABAA receptors) (Homo sapiens, UniProt P18507+P47869); assay: Competitive binding assay, [3H]flunitrazepam
# T5 construct: expressed in transfected cells
# Experimental: as §1
# [10] = biological target: T6, GABAA/α3 (α3β3γ2 GABAA receptors) (Homo sapiens, UniProt P18507+P34903); assay: Competitive binding assay, [3H]flunitrazepam
# T6 construct: expressed in transfected cells
# Experimental: as §1
# [11] = Binding Affinity at GABAA/α1, αxβ3γ2, [3H]flunitrazepam competition
# [12] = Binding Affinity at GABAA/α5, αxβ3γ2, [3H]flunitrazepam competition
# [13] = Binding Affinity at GABAA/α2, αxβ3γ2, [3H]flunitrazepam competition
# [14] = Binding Affinity at GABAA/α3, αxβ3γ2, [3H]flunitrazepam competition
structure (smiles),measurement,setting,value
"C#Cc1ccc2c(c1)C(c1ccccc1F)=NC(C)c1c(C(=O)OCC)ncn1-2 (single isomer, unassigned) [SH-053-2′F-R-CH3, 8-Ethynyl-6-(2-fluorophenyl)-4-methyl-4H-2,5,10b-triaza-benzo[e]azulene-3-carboxylic acid ethyl ester]",Ki,[1],> 5000 nM
same,Ki,[2],> 5000 nM
"C#Cc1ccc2c(c1)C(c1ccccc1F)=NC(C)c1c(C(=O)OCC)ncn1-2 (single isomer, unassigned) [SH-053-2′F-S-CH3, 8-Ethynyl-6-(2-fluorophenyl)-4-methyl-4H-2,5,10b-triazabenzo[e]azulene-3-carboxylic acid ethyl ester]","MES, animals protected/tested","MES-induced seizures; 30 mg/kg, 0.5 Hr",0/1
same,"MES, animals protected/tested","MES-induced seizures; 30 mg/kg, 4.0 Hr",0/1
same,"MES, animals protected/tested","MES-induced seizures; 100 mg/kg, 0.5 hr",0/3
same,"MES, animals protected/tested","MES-induced seizures; 100 mg/kg, 4.0 hr",0/3
same,"MES, animals protected/tested","MES-induced seizures; 300 mg/kg, 0.5 Hr",0/1
same,"MES, animals protected/tested","MES-induced seizures; 300 mg/kg, 4.0 Hr",0/1
same,"scMet, animals protected/tested",[3]; 0.5 h,0/4
same,"scMet, animals protected/tested",[3]; 1.0 h,0/4
same,"scMet, animals protected/tested",[3]; 2.0 h,1/4
same,"scMet, animals protected/tested",[3]; 4.0 h,0/4
same,"scMet, animals protected/tested",[3]; […],1/4
same,"scMet, animals protected/tested","[4]; 30 mg/kg, 0.5 Hr",0/1
same,"scMet, animals protected/tested","[4]; 30 mg/kg, 4.0 Hr",0/1
same,"scMet, animals protected/tested","[4]; 100 mg/kg, 0.5 hr",2/5
same,"scMet, animals protected/tested","[4]; 100 mg/kg, 4.0 hr",0/1
same,"scMet, animals protected/tested","[4]; 300 mg/kg, 0.5 Hr",1/1
same,"scMet, animals protected/tested","[4]; 300 mg/kg, 4.0 Hr",0/1
same,"6 Hz Time to Peak Effect, protected/tested","6 Hz psychomotor seizure; 30 mg/kg, 22 mA, 1.0 Hr",6/8
same,"6 Hz Time to Peak Effect, protected/tested","6 Hz psychomotor seizure; 30 mg/kg, 22 mA, 2.0 Hr",2/8
same,"6 Hz Time to Peak Effect, protected/tested","6 Hz psychomotor seizure; 50 mg/kg, 22 mA, 0.5 Hr",1/4
same,"6 Hz Time to Peak Effect, protected/tested","6 Hz psychomotor seizure; 50 mg/kg, 22 mA, 1.0 Hr",3/4
same,"6 Hz Time to Peak Effect, protected/tested","6 Hz psychomotor seizure; 50 mg/kg, 22 mA, 2.0 Hr",3/4
same,"6 Hz Time to Peak Effect, protected/tested","6 Hz psychomotor seizure; 100 mg/kg, 22 mA, 0.25 Hr",2/4
same,"6 Hz Time to Peak Effect, protected/tested","6 Hz psychomotor seizure; 100 mg/kg, 22 mA, 0.5 Hr",4/4
same,"6 Hz Time to Peak Effect, protected/tested","6 Hz psychomotor seizure; 100 mg/kg, 22 mA, 1.0 Hr",4/4
same,"6 Hz Time to Peak Effect, protected/tested","6 Hz psychomotor seizure; 100 mg/kg, 22 mA, 2.0 Hr",4/4
same,"6 Hz Time to Peak Effect, protected/tested","6 Hz psychomotor seizure; 100 mg/kg, 22 mA, 4.0 Hr",2/4
same,"6 Hz Time to Peak Effect, protected/tested","6 Hz psychomotor seizure; 100 mg/kg, 32 mA, 0.25 Hr",2/4
same,"6 Hz Time to Peak Effect, protected/tested","6 Hz psychomotor seizure; 100 mg/kg, 32 mA, 0.5 Hr",1/4
same,"6 Hz Time to Peak Effect, protected/tested","6 Hz psychomotor seizure; 100 mg/kg, 32 mA, 1.0 Hr",4/4
same,"6 Hz Time to Peak Effect, protected/tested","6 Hz psychomotor seizure; 100 mg/kg, 32 mA, 2.0 Hr",2/4
same,"6 Hz Time to Peak Effect, protected/tested","6 Hz psychomotor seizure; 100 mg/kg, 32 mA, 4.0 Hr",2/4
same,ED50,6 Hz psychomotor seizure; 22 mA,14.2 mg/kg
same,ED50,6 Hz psychomotor seizure; 32 mA,71.2 mg/kg
same,"Tox, animals toxic/tested",[5]; 0.5 h,0/4
same,"Tox, animals toxic/tested",[5]; 1.0 h,0/4
same,"Tox, animals toxic/tested",[5]; 2.0 h,0/4
same,"Tox, animals toxic/tested",[5]; 4.0 h,0/4
same,"Tox, animals toxic/tested",[5]; […],0/4
same,"TOX (Rotorod Test), animals toxic/tested","[6]; 30 mg/kg, 0.5 Hr",0/4
same,"TOX (Rotorod Test), animals toxic/tested","[6]; 30 mg/kg, 4.0 Hr",0/2
same,"TOX (Rotorod Test), animals toxic/tested","[6]; 100 mg/kg, 0.5 hr",1/8
same,"TOX (Rotorod Test), animals toxic/tested","[6]; 100 mg/kg, 4.0 hr",0/4
same,"TOX (Rotorod Test), animals toxic/tested","[6]; 300 mg/kg, 0.5 Hr",2/4
same,"TOX (Rotorod Test), animals toxic/tested","[6]; 300 mg/kg, 4.0 Hr",0/2
same,Ki,[1],> 5000 nM
same,Ki,[2],> 5000 nM
"C#Cc1ccc2c(c1)C(c1ccccc1)=NC(C)c1c(C(=O)OCC)ncn1-2 (single isomer, unassigned) [SH-053-R-CH3, 8-Ethynyl-4-methyl-6-phenyl-4H-2,5,10b-triaza-benzo[e]azulene-3-carboxylic acid ethyl ester]",Ki,[7]; [11],2030 nM
same,Ki,[8]; [12],949 nM
same,Ki,"[1]; read-out: Binding Affinity at GABAA/α4, αxβ3γ2, [3H]flunitrazepam competition",> 5000 nM
same,Ki,"[2]; read-out: Binding Affinity at GABAA/α6, αxβ3γ2, [3H]flunitrazepam competition",> 5000 nM
same,Ki,[9]; [13],2380 nM
same,Ki,[10]; [14],1180 nM
"C#Cc1ccc2c(c1)C(c1ccccc1)=NC(C)c1c(C(=O)OCC)ncn1-2 (single isomer, unassigned) [SH-053-S-CH3, 8-Ethynyl-4-methyl-6-phenyl-4H-2,5,10b-triaza-benzo[e]azulene-3-carboxylic acid ethyl ester]",Ki,[7]; [11],1670 nM
same,Ki,[8]; [12],206 nM
same,Ki,[1],> 5000 nM
same,Ki,[2],> 5000 nM
same,Ki,[9]; [13],1260 nM
same,Ki,[10]; [14],1250 nM
"CN1C(=O)CN=C(c2ccccc2)c2cc(Cl)ccc21 [Diazepam, reference compound]",Ki,[1],> 1000 nM
same,Ki,[2],> 1000 nM
"C#Cc1ccc2c(c1)C(c1cccs1)=NCc1c(C(=O)OCC)ncn1-2 [JC 221 (76), Ethyl 8-acetyleno-6-(2′-thienyl)-4H-benzo[f]imidazo[1,5-a][1,4]diazepine-3-carboxylate]","MES, animals protected/tested","MES-induced seizures; 100 mg/kg, 0.5 hr",0/3
same,"MES, animals protected/tested","MES-induced seizures; 100 mg/kg, 4.0 hr",0/3
same,"scMet, animals protected/tested","[4]; 100 mg/kg, 0.5 hr",0/1
same,"scMet, animals protected/tested","[4]; 100 mg/kg, 4.0 hr",0/1
same,"TOX (Rotorod Test), animals toxic/tested","[6]; 100 mg/kg, 0.5 hr",0/8
same,"TOX (Rotorod Test), animals toxic/tested","[6]; 100 mg/kg, 4.0 hr",0/4
same,Ki,"[7]; αxβ3γ2, [3H]flunitrazepam competition, read-out: Binding Affinity at GABAA/α1",146 nM
same,Ki,[8]; [12],14.3 nM
same,Ki,[2],362 nM
same,Ki,"[9]; αxβ3γ2, [3H]flunitrazepam competition, read-out: Binding Affinity at GABAA/α2",35 nM
same,Ki,[10]; [14],182 nM
"C[Si](C)(C)C#Cc1ccc2c(c1)C(c1ccccc1F)=NCc1c(C(=O)OCC(F)(F)F)ncn1-2 [JYI-53, Trifluoroethyl-8-trimethylsilylacetylenyl-6-(2′-fluorophenyl)-4H-benzo[f]imidazo[1,5-a][1,4]diazepine-3-carboxylate]",Ki,[7]; [11],77.4 nM
same,Ki,"[8]; αxβ3γ2, [3H]flunitrazepam competition, read-out: Binding Affinity at GABAA/α5",133 nM
same,Ki,"[2]; αxβ3γ2, [3H]flunitrazepam competition, read-out: Binding Affinity at GABAA/α6",3650 nM
same,Ki,[9]; [13],40.4 nM
same,Ki,"[10]; αxβ3γ2, [3H]flunitrazepam competition, read-out: Binding Affinity at GABAA/α3",183 nM
